In patent US9714288B2, “Antisense compounds and uses thereof” (The Regents of the University of California, priority 2014, dated 2017):
Converted amounts (≈) assume the structure as drawn. Oligonucleotides are written 5' to 3', each unit as a sugar letter and its base; * is a phosphorothioate linkage, no mark a phosphodiester; rarer units and linkages stand in square brackets, end groups in braces. Plain capitals give the bases only. k = constrained ethyl (cEt); [5mC] = 5-methylcytosine; d = 2'-deoxy (DNA)

What was measured:
[1] = Tolerability of antisense oligonucleotides in BALB/c mice; type: in vivo; conditions: 50 mg/kg s.c. twice per week for three weeks, #1 most favorable, #13 least favorable
Protocol: Selected antisense oligonucleotides were then tested for tolerability in vivo. Six week old, male BALB/c mice were injected subcutaneously twice per week for three weeks with 50 mg/kg of an antisense oligonucleotide listed in Table 1 or with PBS. Each treatment group consisted of 4 animals. Two days following the final oligonucleotide administration, the mice were sacrificed and plasma transaminase levels, body weights, and organ weights were evaluated relative to the PBS treated group. Isis numbers 632417, 632461, and 632640 had the most favorable tolerability rankings and were selected as leads. Isis No. 632461 targets human, mouse, and monkey MXD3 sequences with no mismatches and was chosen for use in further studies.

MXD3 mRNA = MXD3 mRNA levels in K-562 cells by quantitative real-time PCR; type: cell-based, human; conditions: for MXD3 mRNA at 10 μM oligonucleotide (% control): K-562 cells electroporated with 10 μM, ~24 hours, relative to untreated control; for IC50: K-562 cells, MXD3 mRNA, 0-35.0 μM, approximate values
Description: Several hundred antisense oligonucleotides that target human MAX Dimerization Protein 3 (MXD3), GENBANK accession number NT_023133.13 truncated 21540000 to 21577000, SEQ ID NO: 1, were synthesized using standard solid phase oligonucleotide synthetic methods. They are chimeric oligonucleotides (“gapmers”) 16 nucleotides in length, composed of a central “gap” region consisting of 10 2′-deoxynucleotides, which is flanked on both sides (5′ and 3′) by three-nucleotide “wings”. The wings are composed of 4′-CH(CH3)—O-2′ modified nucleotides, also known as constrained ethyl or (S)-cEt nucleotides. The internucleoside (backbone) linkages are phosphorothioate throughout the oligonucleotides. All cytosine residues are 5-methylcytosines. The sequences of selected MXD3 targeting antisense oligonucleotides and their start and stop sites along GENBANK accession number NT_023133.13 truncated 21540000 to 21577000 are shown in Table 1 below.
The antisense oligonucleotides were analyzed for their effects on target mRNA levels. K-562 cells were plated at a density of 50,000 cells per well in 96-well plates and were electroporated with 10 μM oligonucleotide or with no oligonucleotide for untreated controls. After approximately 24 hours, RNA was isolated from the cells, and MXD3 mRNA levels were measured by quantitative real-time PCR using primer probe set RTS4263 (forward: 5′-[…]-3′, SEQ ID NO: 2; reverse: 5′-TGGCCAAGGGTTCCATGT-3′, SEQ ID NO: 3; probe: 5′-CTGCAGCCGCTTGCTCCGG-3′, SEQ ID NO: 4). MXD3 mRNA levels were adjusted according to total RNA content, as measured by RIBOGREEN®. Results for selected oligonucleotides are presented as average percent MXD3 mRNA level, relative to untreated control cells, in Table 1.
A subset of the MXD3 targeting antisense oligonucleotides were selected for dose response analysis in K-562 cells. Cells were electroporated with 0, 2.19, 8.75, or 35.0 μM antisense oligonucleotide and analyzed as described above. Results for selected oligonucleotides are presented as approximate IC50 values in Table 1.

Reh cells = assay: Reh cell growth, number of live cells (MTT assay); type: cell-based, human; conditions: for IC50: Homo sapiens, experimentally determined, Reh cells; for Average number of live cells × 10^3: Table 9, Reh cells, conjugate 2 μM oligonucleotide, Doxorubicin 2.56 ng/mL, Vincristine 1.18 ng/mL

| Compound | Ranking (tolerability) [1] | MXD3 mRNA at 10 μM oligonucleotide (% control) (MXD3 mRNA) | IC50 (MXD3 mRNA) [µM] | IC50 (Reh cells) [ng/mL] | Average number of live cells × 10^3 (Reh cells; 4 hours) | Average number of live cells × 10^3 (Reh cells; 8 hours) | Average number of live cells × 10^3 (Reh cells; 24 hours) | Average number of live cells × 10^3 (Reh cells; 48 hours) | Average number of live cells × 10^3 (Reh cells; 72 hours) |
| --- | --- | --- | --- | --- | --- | --- | --- | --- | --- |
| 632461 (antisense k[5mC]*kA*k[5mC]*dA*dG*dG*dG*dA*d[5mC]*dG*d[5mC]*dA*dT*kA*kA*k[5mC]) [compound 632461] | 2 | 59.8 | 8.99 |  |  |  |  |  |  |
| 632527 (antisense k[5mC]*kA*kT*d[5mC]*dA*dT*dA*dG*d[5mC]*d[5mC]*dA*dG*dG*k[5mC]*kG*k[5mC]) [compound 632527] | 8 | 76.5 | 9.23 |  |  |  |  |  |  |
| 632673 (antisense k[5mC]*kA*k[5mC]*dA*dT*d[5mC]*dA*dT*d[5mC]*d[5mC]*dA*dT*d[5mC]*k[5mC]*kG*kA) [compound 632673] | 7 | 27.5 | 5.58 |  |  |  |  |  |  |
| 632682 (antisense kG*kT*k[5mC]*dA*dT*dT*d[5mC]*dA*dA*d[5mC]*dA*dA*dG*kA*kA*kG) [compound 632682] | 11 | 28.4 | 5.61 |  |  |  |  |  |  |
| 632424 (antisense kA*kG*k[5mC]*d[5mC]*dG*d[5mC]*dA*dG*d[5mC]*d[5mC]*d[5mC]*dA*d[5mC]*k[5mC]*k[5mC]*kT) [compound 632424] | 9 | 94.4 | 1.64 |  |  |  |  |  |  |
| 632417 (antisense kG*kG*k[5mC]*d[5mC]*d[5mC]*dT*dG*dG*dA*dG*d[5mC]*dG*dA*kA*k[5mC]*k[5mC]) [compound 632417] | 1 | 38.3 | 7.05 |  |  |  |  |  |  |
| COc1cccc2c1C(=O)c1c(O)c3c(c(O)c1C2=O)C[C@@](O)(C(=O)CO)C[C@@H]3O[C@H]1C[C@H](N)[C@H](O)[C@H](C)O1 [Doxo, Doxorubicin] |  |  |  | 2.56 (≈ 4.71 nM) | 22.3 × 10^3 | 22.9 × 10^3 | 30 × 10^3 | 37 × 10^3 | 41.8 × 10^3 |
| 632634 (antisense kG*kG*kA*dT*dT*dA*d[5mC]*dT*dG*dT*d[5mC]*d[5mC]*dT*kA*kG*kG) [compound 632634] | 10 | 47.4 | 5.71 |  |  |  |  |  |  |
| 632460 (antisense kA*kT*kA*dA*d[5mC]*d[5mC]*dA*dT*dG*d[5mC]*dT*d[5mC]*dG*kG*k[5mC]*k[5mC]) [compound 632460] | 13 | 59.0 | 2.95 |  |  |  |  |  |  |
| CC[C@]1(O)C[C@H]2CN(CCc3c([nH]c4ccccc34)[C@@](C(=O)OC)(c3cc4c(cc3OC)N(C=O)[C@H]3[C@@](O)(C(=O)OC)[C@H](OC(C)=O)[C@]5(CC)C=CCN6CC[C@]43[C@@H]65)C2)C1 [Vcr, Vincristine] |  |  |  | 1.18 (≈ 1.43 nM) | 20.2 × 10^3 | 19.6 × 10^3 | 27.8 × 10^3 | 33.1 × 10^3 | 34.8 × 10^3 |
| 632407 (antisense k[5mC]*kA*kT*d[5mC]*d[5mC]*dA*d[5mC]*d[5mC]*d[5mC]*dA*d[5mC]*dG*d[5mC]*k[5mC]*kG*kG) [compound 632407] | 12 | 60.5 | 1.64 |  |  |  |  |  |  |
| 632669 (antisense kT*kA*kA*dA*d[5mC]*dA*d[5mC]*dT*dT*dG*dT*d[5mC]*dA*kG*kA*kG) [compound 632669] | 4 | 34.0 | 9.05 |  |  |  |  |  |  |
| 632672 (antisense kA*kT*k[5mC]*d[5mC]*dA*dT*d[5mC]*d[5mC]*dG*dA*dG*dA*dA*k[5mC]*k[5mC]*kA) [compound 632672] | 6 | 50.3 | 4.76 |  |  |  |  |  |  |
| 632640 (antisense k[5mC]*kA*kA*dG*d[5mC]*dA*dA*d[5mC]*dA*dA*dG*dT*dG*kG*kG*k[5mC]) [compound 632640] | 3 | 65.6 | 0.38 |  |  |  |  |  |  |
| 632528 (antisense kA*kG*kG*dA*dA*d[5mC]*dA*dT*d[5mC]*dA*dT*dA*dG*k[5mC]*k[5mC]*kA) [compound 632528] | 5 | 63.6 | 5.89 |  |  |  |  |  |  |
